Patent US11691972B2, “Compounds for targeted degradation of BRD9” (C4 Therapeutics, Inc., priority 2020, dated 2023)
Like-named read-outs stand apart in the source and are kept apart here. One block for each molecule: values may come before it.

Biological target: T1, BRD9 (Homo sapiens, UniProt Q9H8M2)
T1 sequence (Q9H8M2 1-597): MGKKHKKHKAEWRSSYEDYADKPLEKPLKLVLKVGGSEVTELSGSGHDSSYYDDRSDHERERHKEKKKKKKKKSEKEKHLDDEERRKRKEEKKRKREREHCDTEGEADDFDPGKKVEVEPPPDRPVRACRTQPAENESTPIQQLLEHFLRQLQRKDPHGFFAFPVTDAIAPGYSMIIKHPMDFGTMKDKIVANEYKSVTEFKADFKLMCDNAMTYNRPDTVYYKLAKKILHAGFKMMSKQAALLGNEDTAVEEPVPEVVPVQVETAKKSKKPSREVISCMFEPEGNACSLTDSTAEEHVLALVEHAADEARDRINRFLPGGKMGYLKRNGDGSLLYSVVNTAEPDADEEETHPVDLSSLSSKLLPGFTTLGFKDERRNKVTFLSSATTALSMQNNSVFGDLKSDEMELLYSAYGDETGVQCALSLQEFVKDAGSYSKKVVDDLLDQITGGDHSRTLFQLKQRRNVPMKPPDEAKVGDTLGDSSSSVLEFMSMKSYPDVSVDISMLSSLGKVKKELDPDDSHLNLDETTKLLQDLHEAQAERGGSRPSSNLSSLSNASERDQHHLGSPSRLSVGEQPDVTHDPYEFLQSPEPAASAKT
Assay: HiBiT BRD9 degradation assay in 293T.166 (BRD9-HiBiT) cells
Format: cell-based
Parameters: endogenously expressing BRD9 with HiBiT fusion tag via CRISPR; host or cells: 293T.166 (BRD9-HiBiT), also expressing LgBiT ectopically
Conditions: 293T.166 cells, 2.0 hours, class symbols, read-out: HiBiT-Degradation 293T.166 BRD9 2.0 hours (DC50)
How it was run: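 Luminescence from the Nano-Glo HiBiT lytic reagent quantified BRD9 loss after compounds (top 10 μM, half-log, 11 points, duplicates) were incubated 2 h at 37° C. with 10,000 293T.166 BRD9-HiBiT/LgBiT cells per well, with controls lacking compound or lacking reagent.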

SMILES: COc1cc(-c2cn(C)c(=O)c3[nH]ncc23)cc(Cl)c1CN1CCC(C2CCN(c3ccc(NC4CCC(=O)NC4=O)cc3Cl)CC2)CC1 (centres unmarked) [Compound 75]
DC50 (Table 1): < 100 nM

SMILES: COc1cc(-c2cn(C)c(=O)c(C)c2C)cc(OC)c1CN1CCC(N2CCN(c3ccc(NC4CCC(=O)NC4=O)cc3F)CC2)C(F)(F)C1 (single isomer, unassigned) [Compound 173, 3-[4-[4-[1-[[2,6-dimethoxy-4-(1,4,5-trimethyl-6-oxo-3-pyridyl)phenyl]methyl]-3,3-difluoro-4-piperidyl]piperazin-1-yl]-3-fluoro-anilino]piperidine-2,6-dione]
DC50 (Table 1): < 100 nM

SMILES: Cc1c(-c2ccc(CN3CCC(C4CCN(c5ccc(NC6CCC(=O)NC6=O)cc5F)CC4)CC3)c(OC(F)(F)F)c2)cn(C)c(=O)c1C (centres unmarked) [Compound 80]
DC50 (Table 1): < 100 nM

SMILES: COc1cc(-c2cn(C)c(=O)c3[nH]ncc23)cc(F)c1CC1CCN(CC(=O)N2CCC(c3ccc(NC4CCC(=O)NC4=O)cc3)CC2)CC1 (centres unmarked) [Compound 156, 3-[4-[1-[2-[4-[[2-fluoro-6-methoxy-4-(6-methyl-7-oxo-1H-pyrazolo[3,4-c]pyridin-4-yl)phenyl]methyl]-1-piperidyl]acetyl]-4-piperidyl]anilino]piperidine-2,6-dione]
DC50 (Table 1): < 100 nM

SMILES: Cc1c(-c2ccc(C(=O)N3CCC(N(C)C(=O)N4CCC(c5ccc(NC6CCC(=O)NC6=O)cc5)CC4)CC34CC4)c(OC(F)(F)F)c2)cn(C)c(=O)c1C (centres unmarked) [Compound 137]
DC50 (Table 1): < 100 nM

SMILES: COc1cc(-c2cn(C)c(=O)c3[nH]ncc23)cc(Cl)c1CN1CCc2c(CC3CCN(c4ccc(NC5CCC(=O)NC5=O)cc4F)CC3)cccc2C1 (centres unmarked) [Compound 105, 3-[4-[4-[[2-[[2-chloro-6-methoxy-4-(6-methyl-7-oxo-1H-pyrazolo[3,4-c]pyridin-4-yl)phenyl]methyl]-3,4-dihydro-1H-isoquinolin-5-yl]methyl]-1-piperidyl]-3-fluoro-anilino]piperidine-2,6-dione]
DC50 (Table 1): < 100 nM

SMILES: COc1cc(-c2cn(C)c(=O)c(C)c2C)cc(Cl)c1CN1CCc2c(CC3CCN(c4ccc(NC5CCC(=O)NC5=O)cc4F)CC3)cccc2C1 (single isomer, unassigned) [Compound 250]
DC50 (Table 2): < 100 nM

SMILES: COc1cc(-c2cn(C)c(=O)c3[nH]ncc23)cc(Cl)c1CN1CCC(N(C)C(=O)N2CCC(c3ccc(NC4CCC(=O)NC4=O)cc3)CC2)CC1 (centres unmarked) [Compound 117]
DC50 (Table 1): < 100 nM

SMILES: COc1cc(-c2cn(C)c(=O)c(C)c2C)cc(Cl)c1CN1CCC(C2CCN(c3ccc(NC4CCC(=O)NC4=O)cc3C(F)(F)F)CC2)CC1 (centres unmarked) [Compound 85]
DC50 (Table 1): < 100 nM

SMILES: COc1cc(-c2cn(C)c(=O)c3ccccc23)cc(OC)c1C(=O)N1CCC(N(C)C(=O)N2CCC(c3ccc(NC4CCC(=O)NC4=O)cc3)CC2)CC1 (centres unmarked) [Compound 135]
DC50 (Table 1): < 100 nM

SMILES: COc1cc(-c2cn(C)c(=O)c3cnccc23)cc(F)c1CC1CCN(C(=O)CC2CCN(c3ccc(NC4CCC(=O)NC4=O)cc3F)CC2)CC1 (centres unmarked) [Compound 158, 3-[3-fluoro-4-[4-[2-[4-[[2-fluoro-6-methoxy-4-(2-methyl-1-oxo-2,7-naphthyridin-4-yl)phenyl]methyl]-1-piperidyl]-2-oxo-ethyl]-1-piperidyl]anilino]piperidine-2,6-dione]
DC50 (Table 1): < 100 nM

SMILES: COc1cc(-c2cn(C)c(=O)c3cnccc23)cc(Cl)c1CN1CCC(N2CCN(c3ccc(NC4CCC(=O)NC4=O)cc3F)CC2)C(F)(F)C1 (single isomer, unassigned) [Compound 180, 3-[4-[4-[1-[[2-chloro-6-methoxy-4-(2-methyl-1-oxo-2,7-naphthyridin-4-yl)phenyl]methyl]-3,3-difluoro-4-piperidyl]piperazin-1-yl]-3-fluoro-anilino]piperidine-2,6-dione]
DC50 (Table 1): < 100 nM

SMILES: COc1cc(-c2cn(C)c(=O)c3[nH]ncc23)cc(Cl)c1CN1CCC(CC(=O)N2CCC(c3ccc(NC4CCC(=O)NC4=O)cc3)CC2)C(F)(F)C1 (single isomer, unassigned) [Compound 203, 3-[4-[1-[2-[1-[[2-chloro-6-methoxy-4-(6-methyl-7-oxo-1H-pyrazolo[3,4-c]pyridin-4-yl)phenyl]methyl]-3,3-difluoro-4-piperidyl]acetyl]-4-piperidyl]anilino]piperidine-2,6-dione]
DC50 (Table 1): < 100 nM

Continued, values first:

DC50 (Table 1): < 100 nM
SMILES: COc1cc(-c2cn(C)c(=O)c3[nH]ncc23)cc(F)c1CN1CCC(CCC2CCN(c3ccc(NC4CCC(=O)NC4=O)cc3)CC2)CC1 (centres unmarked) [Compound 147, 3-[4-[4-[2-[1-[[2-fluoro-6-methoxy-4-(6-methyl-7-oxo-1H-pyrazolo[3,4-c]pyridin-4-yl)phenyl]methyl]-4-piperidyl]ethyl]-1-piperidyl]anilino]piperidine-2,6-dione]

DC50 (Table 1): < 100 nM
SMILES: Cn1cc(-c2ccc(CN3CCN(C(=O)CC4CCN(c5ccc(NC6CCC(=O)NC6=O)cc5)CC4)CC3)c(OC(F)(F)F)c2)c2cn[nH]c2c1=O (centres unmarked) [Compound 51]

DC50 (Table 1): < 100 nM
SMILES: COc1cc(-c2cn(C)c(=O)c3[nH]ncc23)cc(Cl)c1CN1CCC(CC(=O)N2CCC(c3ccc(NC4CCC(=O)NC4=O)cc3)C(F)(F)C2)CC1 (centres unmarked) [Compound 45]

DC50 (Table 1): < 100 nM
SMILES: COc1cc(-c2cn(C)c(=O)c3cnccc23)cc(Cl)c1C(=O)N1CCC(C2CCN(c3ccc(NC4CCC(=O)NC4=O)cc3F)CC2)CC1 (centres unmarked) [Compound 209]

DC50 (Table 1): < 100 nM
SMILES: COc1cc(-c2cn(C)c(=O)c3[nH]ncc23)cc(OC)c1CN1CCn2c(CN3CCC(c4ccc(NC5CCC(=O)NC5=O)cc4)CC3)ccc2C1 (centres unmarked) [Compound 102]

DC50 (Table 1): < 100 nM
SMILES: CC(c1ccc(-c2cn(C)c(=O)c3cnccc23)cc1OC(F)(F)F)N1CCC(C2CCN(c3ccc(NC4CCC(=O)NC4=O)cc3F)CC2)CC1 (centres unmarked) [Compound 92]

DC50 (Table 1): < 100 nM
SMILES: COc1cc(-c2cn(C)c(=O)c3[nH]ncc23)cc(OC)c1CC1CCN(C(=O)CC2CCN(c3ccc(NC4CCC(=O)NC4=O)cc3C(F)(F)F)CC2)CC1 (centres unmarked) [Compound 160]

DC50 (Table 1): < 100 nM
SMILES: COc1cc(-c2cn(C)c(=O)c3[nH]ncc23)cc(Cl)c1CN1CCC(C2CCN(c3ccc(NC4CCC(=O)NC4=O)cc3)CC2)CC1 (centres unmarked) [Compound 71]

DC50 (Table 1): < 100 nM
SMILES: COc1cc(-c2cn(C)c(=O)c3[nH]ncc23)cc(F)c1C=C1CCN(CC(=O)N2CCC(c3ccc(NC4CCC(=O)NC4=O)cc3)CC2)CC1 (centres unmarked) [Compound 157, 3-[4-[1-[2-[4-[[2-fluoro-6-methoxy-4-(6-methyl-7-oxo-1H-pyrazolo[3,4-c]pyridin-4-yl)phenyl]methylene]-1-piperidyl]acetyl]-4-piperidyl]anilino]piperidine-2,6-dione]

DC50 (Table 1): < 100 nM
SMILES: Cn1cc(-c2ccc(C(=O)N3CCC(N4CCN(c5ccc(NC6CCC(=O)NC6=O)cc5F)CC4)C(F)(F)C3)c(OC(F)(F)F)c2)c2ccncc2c1=O (centres unmarked) [Compound 227]

DC50 (Table 1): < 100 nM
SMILES: CN(C(=O)N1CCC(c2ccc(NC3CCC(=O)NC3=O)cc2)CC1)C1CCN(C(=O)c2ccc(-c3cn(C)c(=O)c4[nH]ncc34)cc2OC(F)(F)F)CC1 (centres unmarked) [Compound 130]

DC50 (Table 1): < 100 nM
SMILES: COc1cc(-c2cn(C)c(=O)c(C)c2C)cc(OC)c1CN1C2CCC1CN(C(=O)CC1CCN(c3ccc(NC4CCC(=O)NC4=O)cc3C(F)(F)F)CC1)C2 (centres unmarked) [Compound 63, 3-[4-[4-[2-[8-[[2,6-dimethoxy-4-(1,4,5-trimethyl-6-oxo-3-pyridyl)phenyl]methyl]-3,8-diazabicyclo[3.2.1]octan-3-yl]-2-oxo-ethyl]-1-piperidyl]-3-(trifluoromethyl)anilino]piperidine-2,6-dione]

DC50 (Table 1): < 100 nM
SMILES: COc1cc(-c2cn(C)c(=O)c3[nH]ncc23)cc(OC)c1CN1CCC(N2CCN(c3ccc(NC4CCC(=O)NC4=O)cc3F)CC2)C(F)(F)C1 (centres unmarked) [Compound 182]
